pIC50: −log10 of the molar value.
How the values were obtained:
[1] = system: U46619 induced contraction in rat aorta; assay: Inhibitory effect on U46619 induced contraction in rat aorta; assay type: cell-based, SD male rat; details: relaxation of contraction by 10^-7 M U46619, rat thoracic aorta, 37° C., logit method
Procedure: Inhibitory effect on U46619 induced contraction in rat aorta:
The sample was kept at 37° C., bubbled with 95% oxygen gas containing 5% CO2, and suspended in a 10 ml organ bath filled with a Krebs-Henseleit solution at 2 g resting tension. 10^-7 M of U46619 which is a stable active substance of TXA2 was added portionwise. After the contraction responses were stabilized, the test compound was added to the organ bath, and its antagonism was evaluated. A concentration-relaxation curve was obtained, to which was applied a logit method to obtain pIC50 values.

[2] = system: Human platelet aggregation; assay: Human platelet aggregation inhibitory action (in vitro), U46619-induced; assay type: cell-based; details: human PRP, approximately 4×10^5 cells/ml, 1 μM U46619, 37° C., Born's method, read-out: IC50 (concentration required for inhibiting the platelet aggregation induced by 1 μM of U46619 by 50%)
Procedure: Human platelet aggregation inhibitory action (in vitro):
Blood samples were collected from healthy humans. 9 parts by volume of the collected blood was mixed with 1 part by volume of an aqueous 3.8%(W/v) trisodium citrate, and the mixture was subjected to centrifugal separation for collecting the supernatant-to prepare a platelet rich plasma (PRP). A further centrifugation was-performed to separate a platelet poor plasma (PPP). PRP was diluted with PPP to adjust the number of platelets to approximately 4×10^5 cells/ml. Subsequently, 200 micro liters of PRP were added with the […] and 25 micro liters of an equimolar aqueous sodium hydrogencarbonate solution, and stirred for 2 minutes at 37° C. Thereafter, U46619 was added thereto for inducing platelet aggregation. The platelet aggregation was measured in accordance with a Born's method ("Nature", vol 194, page 927 (1962)), and inhibition against the platelet aggregation was examined. The platelet aggregation inhibitory action of the test compounds was expressed as the IC50 value (concentration required for inhibiting the platelet aggregation induced by 1 μM of U46619 by 50%).

Structure (SMILES) | pIC50 [1] | pIC50 [2]
O=C(O)Cc1ccc2c(c1)CC(CNS(=O)(=O)c1ccccc1)C2 (stereo not shown) [Example 1, [2-(phenylsulfonylaminomethyl)indan-5-yl]acetic acid] | 7.89 | 6.14
O=C(O)COc1ccc(CCNS(=O)(=O)c2ccccc2)cc1 [Control compound, 4-(2-phenylsulfonylaminoethyl)phenoxy acetic acid, reference compound] | 6.37 | 5.60
O=C(O)COc1ccc2c(c1)CC(CNS(=O)(=O)c1ccccc1)C2 (stereo not shown) [Example 29, 2-(phenylsulfonylaminomethyl)indan-5-hydroxyacetic acid] | 7.50 | –
O=C(O)CCC(=O)c1ccc2c(c1)CC(CNS(=O)(=O)c1ccc(Cl)cc1)C2 (stereo not shown) [Example 40] | – | 5.95
O=C(O)COc1ccc2c(c1)CC(CNS(=O)(=O)c1ccc(Cl)cc1)C2 (stereo not shown) [Example 30, 2-[(4-chlorophenyl)sulfonylaminomethyl)indan-5-hydroxyacetic acid] | – | 6.51
O=C(O)c1ccc2c(c1)CC(CNS(=O)(=O)c1ccc(Cl)cc1)C2 (stereo not shown) [Example 33, [2-[(4-chlorophenyl)sulfonylaminomethyl]-indan-5-yl]carboxylic acid] | – | 6.07
O=C(O)Cc1ccc2c(c1)CC(CCNS(=O)(=O)c1ccccc1)C2 (stereo not shown) [Example 25, [2-(2-phenylsulfonylaminoethyl)indan-5-yl]acetic acid] | 6.50 | 5.61
O=C(O)Cc1ccc2c(c1)CC(CNS(=O)(=O)c1ccc(Cl)cc1)C2 (stereo not shown) [Example 24, [2-[(4-chlorophenyl)sulfonylaminomethyl)indan-5-yl]acetic acid] | 8.52 | 6.11
O=C(O)c1ccc2c(c1)CC(CCNS(=O)(=O)c1ccc(Cl)cc1)C2 (stereo not shown) [Example 34, [2-[2-(4-chlorophenyl)sulfonylaminoethyl)indan-5-yl]-carboxylic acid] | – | 6.22

From US5409956A, “Indan derivative and thromboxane antagonist containing the same” (Zeria Pharmaceutical Co., Ltd., priority 1991, dated 1995)
